Experimental data published in PMC5467173, “Blood-brain-barrier spheroids as an in vitro screening platform for brain-penetrating agents” (Nature Communications, 2017).

Key:
[1] = tested on: multicellular BBB spheroids (astrocytes, HBVP and hCMEC/D3); assay: Transport of fluorescently labelled peptides / CPP screen in multicellular BBB spheroids (hCMEC/D3), confocal microscopy; format: in vitro ADME, human
Experimental: Sterile 1% agarose (w/v) was prepared by adding […] of molecular biology grade agarose (Bio-rad) into 50 ml of PBS in a conical flask, and boiled in a microwave until completely dissolved. The melted agarose solution was transferred into a sterile tissue culture hood, and 50 μl of the solution was dispensed into each well of a 96-well plate while it was still hot using a multi-channel pipette, and allowed to cool/solidify (∼15 min). Primary human astrocytes, HBVP and HBMEC were released by trypsin/EDTA (Thermo Scientific) and resuspended in HBMEC working medium. The concentration of each cell type was determined using a haemocytometer. 1 × 10^3 of each cell type was seeded onto the agarose gel in each well of the 96-well plate in a 1:1:1 ratio (final volume=100 μl). Cells were placed in a humidified incubator at 37 °C with 5% CO2, and 95% natural air for 48–72 h to allow for the assembly of multicellular BBB spheroids. For spheroid formation using the immortalized hCMEC/D3 EC line: hCMEC/D3, astrocytes and HBVP were released by trypsin/EDTA and resuspended in hCMEC/D3 working medium. 1.5 × 10^3 of each cell type were seeded onto the agarose gel in each well of the 96-well plate in a 1:1:1 ratio, and spheroids were allowed to form as described above.
Angiopep-2 (or scramble) peptide labelled with a Cy5 was added into each tube at a final concentration of 5 and 10 μM, and incubated for 3 h at 37 °C on a rotator. Spheroids were washed with PBS, fixed with 3.7% formaldehyde and imaged using a confocal microscope as described in earlier sections. […] The same methodology was applied for angiopep-2/scramble peptide labelled with a TAMRA (tetramethylrhodamine) dye. To inhibit transcytosis, spheroids were incubated with each peptide (5 μM final concentration) in cold working medium (on ice) for 3 h. For cryo-sectioning, spheroids were embedded in optimum cutting temperature compound (Tissue-Tek, Sakura Finetek, Torrance, CA), frozen on dry ice and sliced into 10 μm sections. Spheroid sections were imaged under a Nikon epi-fluorescence inverted microscope. […]

[2] = tested on: BBB spheroids (astrocytes, HBVP and hCMEC/D3 cells); assay: Evaluation of small molecule transport into BBB spheroids using MALDI-MSI; format: in vitro ADME, human; conditions: 10 μM, 24 h, 37 °C; 12 μm sections; 30 μm pixel step; nspheroid=150, ntissue=2
Experimental: BBB spheroids were established (using astrocytes, HBVP and hCMEC/D3 cells) for 48 h as described earlier. Approximately 150 spheroids per group were pooled into a 1.5 ml microcentrifuge tube in 1 ml of hCMEC/D3 working media. BKM120 or Dabrafenib was added into each tube at a final concentration of 10 μM and incubated for 24 h at 37 °C under constant rotation. Spheroids were washed 5 × with wash buffer (150 mM ammonium acetate in HPLC grade water, pH 7), and then transferred into an UltraFlux 0.2 ml PCR tube (BioExpress) in 200 μl of wash buffer. The spheroids were then, pooled at the bottom of the tube, and snap-frozen in a dry ice/ethanol bath. The top of the frozen tube was mounted onto a cryostat holder, and the bottom of the tube containing the spheroids was sectioned into 12 μm slices using a Microm HM550 cryostat, with the chamber and the specimen holder chilled at −26 °C. Sectioned tissues embedded in the frozen wash buffer were thaw-mounted onto indium tin oxide (ITO) coated microscopic slides (Bruker Daltonics) for MALDI-MSI, and regular positively charged glass slides for haematoxylin and eosin (H/E) staining. The tissues were allowed to dry for at least 15 min in a dessicator. […]

[3] = cited from earlier work
Source text: Because most drugs are non-fluorescent, we explored an alternative strategy to detect drugs within the BBB spheroids using matrix-assisted laser desorption/ionization mass spectrometry imaging (MALDI-MSI).

[4] = tested on: BBB spheroid surface barrier; assay: Co-incubation with high molecular weight dextran (integrity of spheroid surface barrier); conditions: drug 10 μM with FITC-dextran 70 kDa 10 μg ml^−1, 24 h; 88 μm depth; nspheroid=3–6
Experimental: Multicellular BBB spheroids were formed through co-culturing astrocytes, HBVP and either HBMEC or hCMEC/D3 as described earlier for 48 h. Spheroids were incubated with increasing concentration of VEGF-A (between 5 and 100 ng ml^−1) and 10 μg ml^−1 of TRITC-Dextran (155 kDa; Sigma-Aldrich) or FITC-Dextran (70 kDa; Sigma-Aldrich) in the appropriate working medium for 24 h at 37 °C with 5% CO2. Spheroids were washed 3 times with PBS (5 min each), transferred into a Nunc Lab-Tek II thin-glass 8-well chambered coverglass (Thermo Scientific) and imaged under a confocal microscope as described earlier. Quantification of spheroid permeability to fluorescent dextran was performed using ImageJ software (http://imagej.net/Fiji). The mean fluorescence intensity of the core of each spheroid at 88 μm depth was quantified and plotted using GraphPad Prism (version 7.0 software).
To examine if angiopep-2 affects the overall permeability of the spheroid surface barrier, spheroids were co-incubated with 10 μM of TAMRA-angiopep (or TAMRA-scramble) and FITC-dextran (70 kDa; 10 μg ml^−1) as described earlier for 3 h at 37 °C on a rotator. […] The mean TAMRA and FITC fluorescence intensity of the core of each spheroid at 88 μm depth was quantified using ImageJ software and plotted using GraphPad Prism.

[5] = Stability in hCMEC/D3 working media containing 2% human serum; format: in vitro ADME; conditions: Cy5.5-CPP 5 μM in hCMEC/D3 working media (2% human serum), 37 °C, LC-MS extracted ion current, (EICt3/EICt0) × 100
Experimental: Cy5.5-angiopep and Cy5.5-scramble. Angiopep and scramble peptides (50 μM) were incubated in hCMEC/D3 working media (containing 2% human serum) at 37 °C. […] The material was resuspended in 30 μl of 50:50 water:acetonitrile containing 0.1% TFA. […] The process was repeated (n=3) for each peptide.

[6] = tested on: hCMEC/D3 / HBVP / astrocyte triple co-culture transwell model; format: in vitro ADME, human
Experimental: Both the apical and basal sides of 24-well transwell insert (0.4 μm pore size; Greiner Bio-One, Cat. # 662,641) were coated with rat-tail collagen (5 μg ml^−1 in PBS; Olaf Pharmaceuticals, Worcester, MA) overnight at 4 °C. Each transwell was inverted, and 5 × 10^4 HBVP cells (in 50 μl pericyte medium) were seeded on the basal side of the insert. The inserts were encased in an inverted plate, and allowed to adhere in a humidified incubator for 2 h at 37 °C with 5% CO2. Inserts were then removed and placed within a 24-well plate (upright) containing 300 μl pericyte medium, ensuring that the HBVP cells on the basal side of the insert was properly submerged in the medium. […] hCMEC/D3 cells were seeded on the apical side of the insert (in 200 μl volume) in EGM-2. In a separate 24-well plate, 5.0 × 10^4 astrocytes were seeded in AGM. […] TEER measurements of inserts without cells were subtracted from TEER values obtained from inserts containing cells (measured in ohms (Ω)). […]
After 84 h of co-culture in the transwell, TAMRA- angiopep-2 or TAMRA-scramble were added into the apical side of the insert at a final concentration of 10 μM. […] To assess the apical-to-basolateral permeability, the mean fluorescence intensity of the basal side of the transwell was quantified over time using ImageJ software and plotted using GraphPad Prism.

brain parenchyma = assay: Ex vivo imaging of angiopep-2 in mouse brain after tail vein injection; conditions: Cy5.5-labelled peptide, 100 μg via tail vein, mice killed after 24 h
Experimental: Cy5.5-angiopep-2 or Cy5.5-scramble were diluted to a final concentration of 1 mg ml^−1 in 0.9% NaCl irrigation solution (Hospira, Lake Forest, IL). 100 μl of each peptide (total of 100 μg) was administered intravenously via tail vein injection. After 24 h, mice were killed (by CO2 asphyxiation), and immediately perfused with PBS followed by 10% formalin solution (Sigma-Aldrich). Brains were excised, and a coronal cut through the cerebral cortex was made with a sharp scalpel. The brains were washed several times with PBS containing 0.05% Tween-20, and incubated with DyLight 488 lectin (Vector Laboratories, Burlingame, CA) and Hoechst dye (Life Technologies; 1:1,000 dilution) for 1 h in PBS containing 0.02% Tween-20. This was followed by 3 washes (15 min each) with PBS containing 0.05% Tween-20. […] The brain tissue was imaged under a confocal microscope using a × 40 oil immersion objective. Z-slices captured through each spheroid (up to 100 μm-deep) were merged to generate a 2D maximum intensity projection using the ZEN blue imaging software (version 2012). Animal experiments described here are listed in the Brigham and Women’s Hospital Animal Experimentation Protocol 2016N000300 Translational Neurooncology Core (BWH IACUC approved 2016).

[7] = tested on: multicellular BBB spheroids (astrocytes, HBVP and HBMEC); assay: Transport of fluorescently labelled peptides into multicellular BBB spheroids (primary HBMEC), confocal microscopy; format: in vitro ADME, human
Experimental: Multicellular BBB spheroids (composed of astrocytes, HBVP and HBMEC (or hCMEC/D3)) were established for 48–72 h as described earlier, and pooled into a 1.5 ml Lobind microcentrifuge tube (Eppendorf) in 1.0 ml HBMEC (or hCMEC/D3) working media. […] Spheroids were washed with PBS, fixed with 3.7% formaldehyde and imaged using a confocal microscope as described in earlier sections. The mean fluorescence intensity inside each spheroid at 88 μm depth was quantified using ImageJ software and plotted using GraphPad Prism. […] To inhibit transcytosis, spheroids were incubated with each peptide (5 μM final concentration) in cold working medium (on ice) for 3 h. For cryo-sectioning, spheroids were embedded in optimum cutting temperature compound (Tissue-Tek, Sakura Finetek, Torrance, CA), frozen on dry ice and sliced into 10 μm sections. Spheroid sections were imaged under a Nikon epi-fluorescence inverted microscope.

## VSALK [Bip(2), Cy5.5-labelled hydrophobic CPP from natural protein]
[1]
  Influx rate at earlier time points (15 min–1 h): highest influx rate

## VPALR [Bip(1), Cy5.5-labelled hydrophobic CPP from natural protein]
[1]
  Influx rate at earlier time points (15 min–1 h): highest influx rate

## CC(C)(C)c1nc(-c2cccc(NS(=O)(=O)c3c(F)cccc3F)c2F)c(-c2ccnc(N)n2)s1 [dabrafenib]
[2]
  Drug detected in sections of BBB spheroids by MALDI-MSI: not detected
[3]
  BBB penetrance: limited BBB penetrance
[4]
  Effect on ability of BBB spheroids to restrict entry of high molecular weight dextran: did not affect

## RKKRRQRRR [HIV-1 Tat, established brain-penetrating standard]
[5]
  product remaining after 3 h in working media: 50%

## Nc1cc(C(F)(F)F)c(-c2cc(N3CCOCC3)nc(N3CCOCC3)n2)cn1 [BKM120]
[2]
  Drug detected in sections of BBB spheroids by MALDI-MSI: dramatic accumulation
[3]
  BBB penetrance: known to cross the BBB
[4]
  Effect on ability of BBB spheroids to restrict entry of high molecular weight dextran: did not affect

## LRRERQSRLRRERQSR [DPV15]
[1]
  Influx rate at earlier time points (15 min–1 h): highest influx rate

## angiopep-2
[6]
  Apical-to-basolateral permeability in co-culture transwell compared to inserts with no ECs: significantly lower permeability
  Transwell permeability of angiopep-2 versus scrambled control: unable to differentiate
Brain parenchyma
  Accumulation in the brain parenchyma in vivo (fluorescence of brain cryosections): extravasation and accumulation
[7]; 10 μM peptide, FITC-dextran 70 kDa 10 μg ml^−1, 3 h, 37 °C, 88 μm depth, nspheroid=3–6, nexperiment=3, versus scrambled peptide
  Influx of TAMRA-labelled peptide on co-incubation with FITC-dextran: significantly higher influx
[7]; 10 μm cryosections, epi-fluorescence
  Peptide level in the core of fixed, cryosectioned spheroids (fluorescence microscopy): high level
[7]; spheroids with primary HBMECs, 10 μM, 3 h, 88 μm depth
  Influx of Cy5-labelled peptide at 4 °C (transcytosis inhibited) versus 37 °C: significantly reduced
[7]; spheroids with primary HBMECs, 5 and 10 μM, 3 h, 37 °C, confocal microscopy, compared with scrambled control, nspheroid=10, nexperiment=3
  Influx of Cy5-labelled peptide into spheroid (mean Cy5 intensity at 88 μm depth): substantial influx
